Results from patent US6379696B1, “Therapeutic preparation for the transdermal administration of active substances” (priority 1995, dated 2002).

Legend:
[1] = topical application; cited from earlier work
[2] = Permeation rate of morphine base through excised guinea pig skin with added LOVASTATIN; details: LOVASTATIN 2%-wt. added; after 24 h; released in 0.9% salt solution, T=37° C., n=3

CC[C@H](C)C(=O)O[C@H]1C[C@@H](C)C=C2C=C[C@H](C)[C@H](CC[C@@H]3C[C@@H](O)CC(=O)O3)[C@H]21 [LOVASTATIN]
DNA-synthesis in the epidermis [1]: increase
cholesterol level in the skin [1]: decrease
transepidermal loss of water [1]: increase
permeation rate of morphine base [2]: double
